Measured values published in patent publication US8669253B2, “Methods for treating glaucoma and macular degeneration” (Duke University, priority 2006, dated 2014).
Several values for one entry are separate records, joined by “and”; a condition that tells them apart may be missing. Identical values can stand only once. Entries after “also recorded” stand apart in the source; their conditions may differ. Values belong to the compound of their own block, whether it stands above or below them.

How the values were obtained:
[1] = molecular target: T1, GGTase-I (Homo sapiens, UniProt P53609); assay: GGTase-I enzyme assay (3H-GGPP incorporation into Ras-CVLL); format: biochemical, mammalian
T1 construct: made in house; host or cells: Sf9 cells
Method: (§1) FTase and GGTase-I activities were determined by following incorporation of radiolabeled isoprenoid from ^3H-FPP and ^3H-GGPP into Ras proteins as described previously (28). Briefly, purified mammalian FTase or GGTase-I (50 ng, expressed in Sf9 cells) (29, 30) were used to initiate reactions containing 0.5 μM FPP or GGPP, respectively and 1 μM of the appropriate purified His-tagged Ras substrates (H-Ras for FTase; Ras-CVLL for GGTase-I). Where indicated in the appropriate Figure legend, inhibitors were added at the indicated concentrations. Final DMSO concentration was 2% for all samples. Reactions were carried out for 10 min at 30° C. before precipitation and product determination. Kinetic assays in which GGPP concentration was varied employed 5 ng GGTase-I, and reactions were carried out for five min to prevent GGTase-I concentration from exceeding GGPP concentration.
Graphing and curve fitting were performed using Prism (GraphPad, SanDiego Calif.). Substrate-velocity curves were fit to the Michaelis-Menten equation, while double-reciprocal plots were fit using linear regression. The Ki for GGTI-DU40 was calculated using nonlinear regression and shared parameter curve fitting for all inhibitor concentrations, the velocity equation used was v=Vmax[S]/(Km(1+([I]/Ki))+[S]).

[2] = molecular target: T2, FTase (Homo sapiens, UniProt P49356); assay: FTase enzyme assay (3H-FPP incorporation into H-Ras); format: biochemical, mammalian
T2 construct: made in house; host or cells: Sf9 cells
Method: as §1

[3] = molecular target: T3, GGTase-II (Rab geranylgeranyltransferase) (Bos taurus, UniProt Q5E9B3); assay: GGTase-II activity assay (bovine brain cytosol, Rab5a substrate); format: biochemical; conditions: concentration range tested
T3 construct: bovine brain cytosol (200 μg protein) as the enzyme source; from tissue; host or cells: bovine brain cytosol
T3 sequence (Q5E9B3 1-331): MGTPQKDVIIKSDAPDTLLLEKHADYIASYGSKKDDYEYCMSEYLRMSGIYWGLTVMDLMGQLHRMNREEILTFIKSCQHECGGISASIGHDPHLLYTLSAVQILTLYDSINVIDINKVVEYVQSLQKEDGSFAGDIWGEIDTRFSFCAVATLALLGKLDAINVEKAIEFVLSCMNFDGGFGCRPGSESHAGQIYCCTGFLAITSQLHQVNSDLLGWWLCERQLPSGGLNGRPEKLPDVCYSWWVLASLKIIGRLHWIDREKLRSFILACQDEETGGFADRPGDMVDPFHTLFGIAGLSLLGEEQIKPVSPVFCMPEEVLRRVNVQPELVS
Method: GGTase-II activity was measured used bovine brain cytosol (200 μg protein) as the enzyme source and purified GST-tagged Rab5a as the protein substrate. The pGEX-Rab5a construct was a gift from Adrienne Cox (University of North Carolina). The assay was performed identically to that described above for the CaaX prenyltransferases except for the enzyme source and protein substrate and that the reaction time was increased to for 30 min.

[4] = molecular target: T4, Icmt (Homo sapiens, UniProt O60725); assay: Icmt assay; format: biochemical; conditions: concentration range tested
T4 construct: made in house; host or cells: Sf9 (membrane preparation)
T4 sequence (O60725 whole entry): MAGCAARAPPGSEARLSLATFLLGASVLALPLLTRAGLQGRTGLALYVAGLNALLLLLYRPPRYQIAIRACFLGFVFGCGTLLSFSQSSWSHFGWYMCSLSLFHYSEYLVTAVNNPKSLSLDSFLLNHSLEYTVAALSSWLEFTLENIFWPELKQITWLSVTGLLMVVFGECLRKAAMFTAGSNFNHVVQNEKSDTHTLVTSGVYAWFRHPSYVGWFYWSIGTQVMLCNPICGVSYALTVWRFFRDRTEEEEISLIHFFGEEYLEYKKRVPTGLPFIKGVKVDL
Method: Icmt assays were performed as described previously (27). Briefly, reactions were performed using biotin-S-famsyl-L-cysteine (4 μM) as a substrate and ^3H-AdoMet (5 μM, 7.5 Ci/mmol) as a methyl donor. Reactions were initiated by the addition of Sf9 membranes containing recombinant human Icmt (2 μg totoal protein) in the presence and absence of inhibitors. Reactions were carried out at room temperature for 20 min, and product formation determined.

[5] = system: GFP-Ras-CVLL in MDCK cells; assay: Localization of GFP-Ras-CVLL in MDCK cells; format: cell-based; conditions: for localization of Ras-CVLL: 20 μM, 24 h
Method: (§2) MDCK cells stably expressing GFP-H-Ras were a gift from Mark Philips (New York University School of Medicine). Ras-CVLL was cloned into pEGFP (Clontech) and used to transfect MDCK cells. Stable clones were then selected using […] Geneticin and expression confirmed by analysis of GFP expression as visualized by fluorescence microscopy. MDCK cells were always cultured as a monolayer in DMEM with 10% FBS. For drug treatment experiments, cells were plated onto glass-bottom microwell dishes (MatTek Corp, Ashland, Mass.) and experiments initiated approximately 24 h after cells reached confluence. All compounds tested were dissolved in DMSO and added to cells at a final DMSO concentration of 0.02%.
(§3) Assessment of receptor independent cell rounding was accomplished using adenovirus expressing the activated mutant of Gα12, Gα12QL (31). MDA-MB-231 cells were plated onto glass-bottom microwell dishes at 60% confluence and grown for 18-24 h in the presence of serum. Cells were then washed once with PBS and media replaced with serum-free media (DMEM) including any indicated compounds and incubated 6 h before addition of recombinant adenovirus. Following an additional 12 h incubation, cells were imaged using brightfield and GFP fluorescence microscopy. Cell images were acquired using an Eclipse TE300 microscope (Nikon) using either an oil immersion lens at 600× (for fluorescence of MDCK cells) or a plan fluor lens at 200× (for MBA-321 cells) and a SPOT digital camera (Diagnostic Instruments, Sterling Heights, Mich.) employing SPOT RT 3.02 software.

[6] = system: GFP-H-Ras in MDCK cells; assay: Localization of GFP-H-Ras in MDCK cells; format: cell-based; conditions: 20 μM, 24 h
Method: as §2
as §3, with “Cells were then washed once with PBS and media replaced with serum-free media (DMEM) including any indicated compounds and incubated 6 h before addition of recombinant adenovirus.” left out

[7] = system: Rap1 prenylation in MDA-MB-231 cells; assay: Unprenylated Rap1 analysis (immunoblot); format: cell-based; conditions: 24 h
Method: To measure levels of unprenylated Rap1 in cells, whole cell lysates of MDA-MB-231 cells (prepared identically to Gβγ partitioning above, 75 ug) were mixed with Laemmli loading buffer and boiled. Samples were then separated by electrophoresis on denaturing 4-20% polyacrylamide gels and proteins transferred to nitrocellulose membranes for immunoblotting with antisera specific for the unprenylated form of Rap1 (Santa Cruz, sc-1482, goat). Sample loading was verified by reprobing blots with antisera for total Rap1 (Santa Cruz, sc-65, rabbit).

[8] = system: Rho association with RhoGDI in MDA-MB-231 cells; assay: RhoGDI-Rho interaction assay (GST-RhoGDI pull-down); format: cell-based; conditions: 24 h, GGTI-DU40 5 μM, FTI 20 μM
Method: The interaction of GST-RhoGDI with endogenous Rho was assessed by protein interaction experiments. RhoGDI was generated as a glutathione-S-transferase fusion protein using a construct provided by Gary Bokoch (Scripps). The GST-RhoGDI fusion protein was incubated with treated MDA-MB-231 cell lysates (prepared identically to Gβγ partitioning above) for 1 hr at 4° C. in a total volume of 200 μl. Glutathione-sepharose was added and the mixture rotated at 4° C. for 30 min after which the affinity matrix was pelleted and washed three times with 500 μl of incubation buffer (70 mM HEPES, pH 7.5, 2 mM EDTA, 1 mM DTT, 150 mM NaCl, 0.1% Tween, 100 μM GDP, 2 mM MgCl2). Proteins retained on the matrix were solubilized in 2× Laemmli loading buffer and separated by electrophoresis on denaturing, 4-20% polyacrylamide gels. Proteins were transferred to nitrocellulose membranes for immunoblotting with an anti-RhoA antibody (Santa Cruz, sc-179).

[9] = system: MDA-MB-231 cells; assay: Thrombin-induced cell rounding; format: cell-based; conditions: 24 h pretreatment, GGTI-DU40 5 μM, SN-DU40 and FTI 20 μM, thrombin 20 min
Method: For the experiments assessing thrombin effects on cell morphology, MDA-MB-231 cells were plated onto glass-bottom microwell dishes at 10-20% confluence and grown for 18-24 h in the presence of serum. Cells were then washed once with PBS and media replaced with serum-free media (DMEM) including indicated compounds and incubated an additional 24 h. Cells were then imaged, treated with thrombin (1 U/mL for 20 min), and imaged again.

[10] = system: Gβγ in MDA-MB-231 cells; assay: Gβγ membrane partitioning; format: cell-based; conditions: 24 h
Method: MDA-MB-231 cells were grown in 10 cm dishes and treated exactly as in the thrombin cell rounding assay. Following drug treatment in serum free media, cells were harvested and lysed using ice cold hypotonic lysis buffer (70 mM HEPES pH 7.4, 2 mM EDTA, 1 mM DTT, and protease inhibitors). Following sonication, the whole cell lysate (75 μg protein) was centrifuged at 100,000×g for 45 min. Both the supernatant (S100) and pellet (P100) fractions were processed on 4-20% SDS-polyacrylamide gels and proteins transferred to nitrocellulose membranes for immunoblot analysis.

[11] = system: MDA-MB-231 cells; assay: Thrombin-induced calcium mobilization (Fura-2); format: cell-based; conditions: 5 μM, 24 h
Method: For the experiments assessing thrombin-induced calcium flux, MDA-MB-231 were plated on glass coverslips and treated similarly to that described for the thrombin rounding experiments. Calcium flux was measured 24 h after withdrawal of serum and addition of inhibitors using the calcium-sensitive dye Fura 2-AM (Molecular Probes Inc)(32). MDA-MB-231 cells were dye loaded for 1 h with 2.5 μM Fura-2 AM in Hanks balanced salt solution (HBSS, supplemented with 10 mM glucose and 0.1% BSA). After dye loading, the coverslips were placed in a temperature controlled recording chamber and superfused with Hanks solution. Cells were excited alternately at 340 and 380 nm and fluorescence emission at 510 nm was measured every four sec during the course of each experiment. After baseline recording for 2 min, thrombin (1 U/mL) was superfused into the bath chamber for 1 min (˜20 mL), followed by washout. Data is presented after baseline subtraction to show thrombin dependent calcium flux. Fluorescence measurements were acquired using a DeltaScan Illumination System (Photon Technology International (PTI), South Brunswick, N.J.) running on FELIX 1.4 software.

[12] = system: MDA-MB-231 cells; assay: Receptor independent cell rounding by Gα12QL expression; format: cell-based
Method: as §3

[13] = system: porcine TM primary cell cultures; assay: TM cell morphology, actin cytoskeleton and focal adhesions; format: cell-based; conditions: 5 to 40 μM, 6 hours, 10% serum
Method: (§4) Methods: A selective inhibitor of GGTase-I (GGTI-DU40) was tested in this study to investigate its effects on actin cytosketal integrity, cell adhesions, cell-cell junctions, myosin II phosphosphorylation, and membrane localization of Rho, Rap and G-beta/gamma in trabecular meshwork (TM) cells, using immunofluorescence detection and immunobloting analysis. The effects of GGTI-DU40 on aqueous humor outflow were determined using organ cultured, perfused anterior segments of porcine eyes.
The porcine TM primary cell cultures were treated with GGTI compounds in the presence of 10% serum for 6 hours and recorded for the changes in cell morphology (phase contrast microscope), actin cytoskeletal organization (phalloidin staining) and focal adhesions (vinculin staining).

[14] = system: myosin light chain (MLC) phosphorylation in porcine primary TM cells; assay: Myosin light chain phosphorylation in TM cells; format: cell-based; conditions: 6 hours, 10% serum
Method: as §4
Porcine primary TM cells were treated with GGTI compounds for 6 hours in the presence of 10% serum and the cell lysates were analyzed for the changes in myosin light chain (MLC) phosphorylation using phosphospecific-anti-MLC antibody.

[15] = system: Rho, Rap and G-beta/gamma in trabecular meshwork (TM) cells; assay: Membrane localization of Rho, Rap and G-beta/gamma in TM cells; format: cell-based, porcine; conditions: drug-treated TM cells
Method: as §4

[16] = system: organ cultured anterior segments of porcine eyes; assay: Aqueous humor outflow facility in organ cultured, perfused anterior segments; conditions: 10 μM or 25 μM, perfused for 24 to 96 hours, n=8, change from baseline facility
Method: as §4
GGTI-396586 was perfused in organ cultured anterior segments of enucleated porcine eyes at a constant flow at 37° C. Changes in aqueous humor outflow facility were determined. Values are expressed as percent change in outflow facility from baseline facility.

- FTase/GGTase-I selectivity ratio [1]: > 250
- mode of inhibition with respect to the protein substrate ([1]; GGPP fixed, Ras-CVLL varied, 2-20 nM inhibitor): competitive inhibitor
- mode of inhibition with respect to GGPP ([1]; Ras-CVLL fixed, GGPP varied, 2-20 nM inhibitor): uncompetitive inhibitor
- time-dependent inhibition of GGTase-I ([1]; data not shown): no such behavior was observed
- Ki ([1]; protein substrate competition data, nonlinear regression, read-out: Ki for GGTase-I inhibition): < 1 nM and 0.78 nM and 0.8 nM
- IC50 ([1]; purified GGTase-I): 8.24 nM
- IC50 [2]: > 2000 nM
- activity against GGTase-II [3]: no detectable activity
- activity against Icmt methyltransferase [4]: no detectable activity
SMILES: CSCCc1c(-c2cccnc2)nn(-c2ccc(Cl)c(Cl)c2)c1OCCCC(=O)N[C@@H](Cc1ccccc1)C(N)=O [GGTI-DU40, N—[(S)-1-Carbamoyl-2-phenylethyl]-4-[2-(3,4-dichlorophenyl)-4-(2-methylsulfanylethyl)-5-pyridin-3-yl-2-H-pyrazol-3-yloxy]butyramide]
- localization of Ras-CVLL [5]: complete mislocalization
- lowest inhibitor concentration at which Ras-CVLL mislocalization could be detected ([5]; data not shown): 2 µM
- localization of H-Ras [6]: without an effect
- level of unmodified (unprenylated) Rap1 [7]: dose dependent increase
- ability of Rho proteins to associate with RhoGDI [8]: almost complete loss
- thrombin-stimulated cell rounding [9]: dramatically inhibited
- membrane-associated Gβγ [10]: partial loss
- ability of thrombin to elicit calcium mobilization [11]: unaffected
- total calcium flux versus control ([11]; integration of time with fluorescence): no statistical difference
- rounding of cells elicited by expression of Gα12QL [12]: blocked
- actin stress fibers and focal adhesions [13]: reversible decreases
- changes in TM cell morphology [13]: dose dependent
- myosin light chain phosphorylation [14]: decreased significantly; also recorded: significantly reduced
- membrane localization of Rho, Rap and G-beta/gamma [15]: impaired
- increase in aqueous outflow facility [16]: 30%

SMILES: CC[C@H](C)[C@@H](CO[C@@H](Cc1ccccc1)C(=O)N[C@@H](CCS(C)(=O)=O)C(=O)OC(C)C)NC[C@@H](N)CS [L-744,832, reference compound]
- localization of Ras-CVLL [5]: no detectable mislocalization
- localization of H-Ras [6]: almost complete mislocalization
- level of unmodified (unprenylated) Rap1 [7]: no effect
- ability of Rho proteins to associate with RhoGDI [8]: no effect
- thrombin-stimulated cell rounding [9]: normal rounding
